# Reference: patent US20220153746A1, “NITROGEN OXIDE-DONATING PDE-5 AND/OR PDE-6 INHIBITOR COMPOUNDS, AND USES THEREOF” (ILDONG PHARMACEUTICAL CO., LTD., priority 2020, published 2022)
# Where “and” joins values, the source holds several entries; their conditions need not be identical. Identical values can stand only once.
# Assay: TD Phase (Groups 1 and 3): plasma and ocular tissue concentrations and pharmacokinetics of Compound 18 and its metabolite Compound 4 after once daily ocular instillation of Compound 18 nanosuspension for 7 days
# Format: in vivo, New Zealand white rabbits
# Details: for Compound 18 Lens Homogenate Conc.: homogenate dilution factor 5; for Compound 18 Iris/Ciliary Body Homogenate Conc. / Compound 18 Optic Nerve Homogenate Conc. / Compound 18 Retina Homogenate Conc. / Compound 18 Trahecular Meshwork Homogenate Conc.: homogenate dilution factor 20; for Cornea homogenate concentration: homogenate dilution factor 15
# Text: This example illustrates the procedures and results for the levels of Compound 18 and its metabolite Compound 4 in plasma and ocular tissues of normotensive rabbits following ocular instillation of Compound 18 once daily for 7 consecutive days.
# Twenty five (25) male New Zealand white rabbits were divided into 5 groups of varying amounts of animals per group.
# The Test article, Compound 18 was formulated as a 2% nanosuspension in DI water containing 0.2% PS80 (polyoxyethylenesorbitan, monooleate (Tween 80)) and 0.4% HPMC (hydroxypropylmethylcellulose) at pH 6.77. Referred to herein as “Compound 18 nanosuspension.”
# The study consisted of three groups (Groups 1-3) of 19 male rabbits (NZW) that underwent once daily morning ocular installation (1 eyedrop) for 7 consecutive days (Day 0-6). Groups 4-5 each consisted of 3 male rabbits (NZW) that were not dosed.
# Blood samples (1 mL) were collected from the jugular vein at the intervals set out below for each group. The samples were then inverted several times following collection and held on wet ice until centrifuged. Samples were centrifuged within 60 minutes of collection under refrigeration (set at 5° C. for 10 minutes at 2000 g.
# Group 1 (Pilot Study, terminal blood collection): blood was collected from 3 animals at 1 hour post day 7 dose of Compound 18 nanosuspension.
# Group 3 (TD Phase, terminal blood collection): blood was collected from 3 animals at 0.5 hour, 3 animals at 2 hours, 3 animals at 4 hours, and 3 animals at 8 hours post day 7 dose of Compound 18 nanosuspension.
# (§1) Group 1 (Pilot Study): 3 animals were terminated at 1 hour post Day 7 dose of Compound 18 nanosuspension. Following blood collection and termination, ocular tissues (aqueous humor, vitreous humor, cornea, iris/ciliary body, lens, optic nerve, retina, sclera/choroid, and trabecular meshwork) were collected from each animal and the tissue weights were recorded. Note: sclera and choroid were collected together. Iris and ciliary body were collected together.
# as §1, with “3 (TD Phase):” for “1 (Pilot Study):”, “0.5 hour, 3 animals at 2 hours, 3 animals at 4 hours, and 3 animals at 8 hours” for “1 hour”
# Plasma and tissue samples from treated animals (Groups 1-3) were analyzed for Compound 18 and its metabolite Compound 4 concentrations by LC-MS/MS.
# Pharmacokinetic analysis was conducted using WinNonlin Version 6.2.1 (Pharsight, Mountain View, Calif.), operating as a validated software system. Noncompartmental analysis was conducted using the extravascular administration model for ocular instillation dosing.
# The peak plasma and ocular tissue concentration, time to achieve peak plasma and ocular tissue concentration, half-life, and area under the plasma and ocular tissue concentration-time curve (Cmax, Tmax, T1/2, and AUC) were calculated from the TD phase combined with the pilot study mean animal plasma and ocular tissue concentrations for each sampling time/dose group for Compound 18 and its metabolite Compound 4.
# BA Assay: Quantitation Range 0.05 to 100 ng/mL for Compound 18, 0.15 to 100 ng/mL for Compound 4.
# 3. Pipet 50 μL of each type of pre-spiked ocular tissue samples (AH/VH) for QC samples, 50 μL of incurred aqueous humor, and vitreous humor sample (if applicable) into a 96 well plate.
# Ocular Tissues Homogenate Preparation: Incurred rabbit ocular tissues were weighed in Genogrinder tubes (plastic tubes with small beads) at the time of removal from the animal and stored frozen (<−70° C.) until analysis. The rabbit incurred ocular tissues were thawed on wet ice. […]
# [1] = TD Phase, Group 1, 1 h, individual animals
# [2] = TD Phase, Group 1, 1 h, individual animals, BQL set to 0
# [3] = TD Phase, Group 3, 0.5 h, individual animals
# [4] = TD Phase, Group 3, 0.5 h, individual animals, BQL set to 0
# [5] = TD Phase, Group 3, 2 h, individual animals
# [6] = TD Phase, Group 3, 2 h, individual animals, BQL set to 0
structure (smiles),measurement,setting,value
"CCCc1nn(C)c2c(=O)[nH]c(-c3cc(S(=O)(=O)N4CC(CCCO[N+](=O)[O-])C4)ccc3OCC)nc12 [Compound 18, 3-(1-((4-ethoxy-3-(1-methyl-7-oxo-3-propyl-6,7-dihydro-1H-pyrazolo[4,3-d]pyrimidin-5-yl)phenyl)sulfonyl)azetidin-3-yl)propyl nitrate]",AUC0-8,"Iris/Ciliary Body, Day 7, Compound 18 0.8 mg/kg ocular instillation once daily, Groups 1 and 3",150 ng·h/g
same,Compound 18 Vitreous Humor Conc.,"TD Phase, Group 1, 1 h, Mean, BQL set to 0",BQL (BQL = Below lower limit of quantitation (0.0500 ng/mL for Compound 18)
same,Compound 18 Aqueous Humor Conc.,[1],BQL (BQL = Below lower limit of quantitation (0.0500 ng/mL for Compound 18)
same,Compound 18 Plasma Conc.,[1],BQL^a (BQL = Below lower limit of quantitation (0.0500 ng/mL for Compound 18) and 0.0581 ng/mL
same,Compound 18 Vitreous Humor Conc.,[1],BQL (BQL = Below lower limit of quantitation (0.0500 ng/mL for Compound 18)
same,Final Compound 18 Optic Nerve Conc.,[1],192 ng/g and 266 ng/g
same,Final Compound 18 Iris/Ciliary Body Conc.,[2],0 ng/g and 18.7 ng/g and 302 ng/g
same,Final Compound 18 Lens Conc.,[2],0 ng/g
same,Final Compound 18 Retina Conc.,[2],6.24 ng/g and 20.2 ng/g and 27.8 ng/g
same,Compound 18 Lens Homogenate Conc.,[1],BQL (BQL = Below lower limit of quantitation (0.0500 ng/mL for Compound 18)
same,Compound 18 Iris/Ciliary Body Homogenate Conc.,[1],BQL (BQL = Below lower limit of quantitation (0.0500 ng/mL for Compound 18) and 0.934 ng/mL and 15.1 ng/mL
same,Compound 18 Optic Nerve Homogenate Conc.,[1],9.59 ng/mL and 13.3 ng/mL
same,Compound 18 Retina Homogenate Conc.,[1],0.312 ng/mL and 1.01 ng/mL and 1.39 ng/mL
same,Compound 18 Trahecular Meshwork Homogenate Conc.,[1],BQL (BQL = Below lower limit of quantitation (0.0500 ng/mL for Compound 18)
same,Compound 18 Aqueous Humor Conc.,"TD Phase, Group 3, 0.5 h, Mean, BQL set to 0",BQL (BQL = Below lower limit of quantitation (0.0500 ng/mL for Compound 18)
same,Compound 18 Aqueous Humor Conc.,[3],BQL^a (BQL = Below lower limit of quantitation (0.0500 ng/mL for Compound 18)
same,Compound 18 Plasma Conc.,[3],0.627 ng/mL and 0.0972 ng/mL and 0.0599 ng/mL
same,Compound 18 Vitreous Humor Conc.,[3],BQL^a (BQL = Below lower limit of quantitation (0.0500 ng/mL for Compound 18)
same,Final Compound 18 Optic Nerve Conc.,[3],116 ng/g and 30.4 ng/g and 183 ng/g
same,Final Compound 18 Sclera/Choroid Conc.,[3],88.8 ng/g and 47.2 ng/g and 186 ng/g
same,Final Compound 18 Iris/Ciliary Body Conc.,[4],2.24 ng/g and 0 ng/g and 268 ng/g
same,Final Compound 18 Lens Conc.,[4],0 ng/g (2×) and 6.35 ng/g
same,Final Compound 18 Retina Conc.,[4],20.2 ng/g and 29.8 ng/g
same,Compound 18 Lens Homogenate Conc.,[3],BQL^1 (BQL = Below lower limit of quantitation (0.0500 ng/mL for Compound 18)
same,Compound 18 Sclera/Choroid Homogenate Conc.,"TD Phase, Group 3, 0.5 h, individual animals, homogenate dilution factor 8",11.1 ng/mL and 5.90 ng/mL and 23.3 ng/mL
same,Cornea homogenate concentration,[3],BQL^a (BQL = Below lower limit of quantitation (0.0500 ng/mL for Compound 18)
same,Compound 18 Iris/Ciliary Body Homogenate Conc.,[3],0.112 ng/mL and BQL^a (BQL = Below lower limit of quantitation (0.0500 ng/mL for Compound 18) and 13.4 ng/mL
same,Compound 18 Optic Nerve Homogenate Conc.,[3],5.79 ng/mL and 1.52 ng/mL and 9.17 ng/mL
same,Compound 18 Retina Homogenate Conc.,[3],1.01 ng/mL and 1.49 ng/mL
same,Compound 18 Trahecular Meshwork Homogenate Conc.,[3],BQL^a (BQL = Below lower limit of quantitation (0.0500 ng/mL for Compound 18)
same,Compound 18 Aqueous Humor Conc.,"TD Phase, Group 3, 2 h, Mean, BQL set to 0",BQL (BQL = Below lower limit of quantitation (0.0500 ng/mL for Compound 18)
same,Compound 18 Aqueous Humor Conc.,[5],BQL (BQL = Below lower limit of quantitation (0.0500 ng/mL for Compound 18)
same,Compound 18 Plasma Conc.,[5],BQL (BQL = Below lower limit of quantitation (0.0500 ng/mL for Compound 18)
same,Compound 18 Vitreous Humor Conc.,[5],BQL (BQL = Below lower limit of quantitation (0.0500 ng/mL for Compound 18)
same,Final Compound 18 Optic Nerve Conc.,[5],24.4 ng/g and 1030 ng/g and 79.0 ng/g
same,Final Compound 18 Iris/Ciliary Body Conc.,[6],1.27 ng/g and 15.4 ng/g and 0 ng/g
same,Final Compound 18 Lens Conc.,[6],0 ng/g
same,Final Compound 18 Retina Conc.,[6],31.5 ng/g and 69.4 ng/g and 3.40 ng/g
same,Compound 18 Lens Homogenate Conc.,[5],BQL (BQL = Below lower limit of quantitation (0.0500 ng/mL for Compound 18)
same,Cornea homogenate concentration,[5],BQL (BQL = Below lower limit of quantitation (0.0500 ng/mL for Compound 18)
same,Compound 18 Iris/Ciliary Body Homogenate Conc.,[5],0.0637 ng/mL and 0.772 ng/mL and BQL (BQL = Below lower limit of quantitation (0.0500 ng/mL for Compound 18)
same,Compound 18 Optic Nerve Homogenate Conc.,[5],1.22 ng/mL and 51.5 ng/mL and 3.95 ng/mL
